Test results as given in patent US8362256B2, “Salts of N-[4-(1-cyanocyclopentyl)phenyl]-2-(4-pyridylmethyl)amino-3-pyridinecarboxamide” (Jiangsu Hengrui Medicine Co. Ltd., priority 2008, dated 2013).
Several values for one entry are separate records, joined by “and”; a condition that tells them apart may be missing. Identical values can stand only once. Like-named read-outs stand apart in the source and are kept apart here.

Experiments:
colon cancer Ls174t = settings: cited from earlier work
[1] = Stability in different conditions, content by HPLC; type: physicochemical; settings: for content after 6 Months Under Light / content after 6 Months at 60° C. / content after 6 Months at Room Temperature: HPLC, initial purity 99.6%
[2] = test system: non-small cell lung cancer A549; settings: cited from earlier work
[3] = Bioavailability of compound A by oral administration (Example 4); type: in vivo, Sprague-Dawley (SD) rats; settings: SD rats
Description: (§1) I. Analysis Condition of LC/MS/MS
(§2) Analysis Condition of Liquid Chromatography
(§3) Column temperature: 25° C.;
(§4) A: 25%+B: 75%, constant gradient elution;
(§5) Analysis time: 3 minutes.
Only after one week adaption, the rats could be used to conduct pharmacokinetics animal experiment.
The blood samples were collected into test tubes containing heparin added in advance, and then centrifuged to produce plasma. […] Euthanasia was performed on used rats with CO2 gas.

VEGFR-2 = VEGFR-2 (Homo sapiens, UniProt P35968); settings: enzyme level tests in different laboratories; cited from earlier work
[4] = test system: kinases Ret, VEGFR-1, PDGFR-β, c-kit, cSRC; settings: cited from earlier work
Solubility = type: physicochemical
in vivo = settings: rat, po, 1 mmol/kg
Text: Male Sprague-Dawley (SD) rats (weight: about 250 g, experimental animal certification of fitness: 0006473) were purchased from Shanghai Slaccas experimental animals limited liability company (certification number: SCXK (Hu) 2003-0003). The relevant qualifications and state of health of the SD rats were checked first, and the eligible ones were placed into the clean grade chambers of rats in Shanghai institute of Materia Medica.
as §1, §2
Chromatographic column: Agilent Zorbax SB-C18 column (50 mm×2.1 mm ID);
as §3
Mobile phase: A: H2O—CH3CN (2:98, v/v), B: H2O—CH3CN (10:90, v/v)
as §4, §5
The light circle was switched to 12/12 hour day/night in the clean grade chambers of rats. Humidity and temperature were 40-60% and 20-24° C., respectively. Every 4 rats were raised in a 36×24×19 cm^3 stainless rat cage. The rats took water freely and were fed special rat food regularly once daily. Only after one week adaption, the rats were used to conduct pharmacokinetics studies. 12 Sprague-Dawley rats were divided into 4 groups, 3 for each group.
The blood samples were collected 0 hour before the administration and 0.083, 0.25, 0.5, 1.0, 2, 4, 6, and 8 hours after the administration. The blood samples were collected at 250˜300 μL at each time point from posterior venous sinus of the eye after respiration anaesthesia with ether (the degree of anaesthesia was highly controlled). The blood was collected into test tubes containing heparin, and then was centrifuged to produce plasma. The obtained plasma was divided into 2 parts (50 μL for each part) and stored at −70° C. until analysis. […] After experiments, euthanasia was performed with CO2 gas.
Pharmacokinetics parameters of animal experiment of each group were calculated using InnaPhase Kinetica™ software (America).

[5] = test system: human colon cancer Ls174t; assay: Efficacy on human colon cancer Ls174t transplanted in nude mice; settings: for Weight after Removing Tumor, d0 / TV x ± SD, d0: d0 baseline; for RTV x ± SD / T/C / TV x ± SD, dn: dn 14 days; for Weight after Removing Tumor, dn: dn 14 days after first administration
Description: BALB/cA-nude mice, ♀, 5-6 weeks-old, available from Shanghai Slaccas experimental animals limited liability company. […] Rearing environment: SPF grade.
(§6) After one week adaption, the experimental animals were subcutaneously inoculated with human colon cancer Ls174t tumor tissues. When the tumors grew to 100-300 mm^3, the animals were randomly divided into several groups in day 0 (d0). […] The volumes of tumors and the weights of mice were measured 2-3 times every week, the data of which were recorded. The equation for the calculation of volume of tumors (V) is: V=½×a×b^2 wherein a and b represent length and width, respectively.

human colon cancer HT-29 = assay: Efficacy on human colon cancer HT-29 transplanted in nude mice
Description: BALB/cA-nude mice, ♀, 5-6 weeks-old, purchased from Shanghai Slaccas experimental animals limited liability company. […] Rearing environment: SPF grade.
as §6, with “HT-29” for “Ls174t”, “groups.” for “groups in day 0 (d0).”, “Volume” for “The volumes”, “weight” for “the weights”, “a,” for “a and”

[6] = 75 mg/kg; initial tumor volume 25-100 mm3; 28 days or more; cited from earlier work
c-Src = c-Src (Homo sapiens, UniProt P12931); assay: ELISA tyrosine kinase inhibition; type: biochemical; settings: concentration increased to 10^4 nM
Description: Phosphorylation of substrate was determined with monoclonal antibody of anti-phosphorylation tyrosine (PY99). Goat anti-mouse IgG marked with HRP was then added, and the degree of phosphorylation of substrate was determined with OPD coloration. At the same time, the control group without tyrosine kinase and control wells of corresponding DMSO concentration were set up. 2 M of H2SO4 was added in 50 μl/well to terminate the reaction. Data was read with adjustable wavelength micro plate enzyme-labeling instrument VERSAmax (Sunnyvale, Calif., U.S.A.), followed by visualization reaction, OD490 nm value was then observed.
Relative inhibition rate of drugs on tyrosine kinase protein was determined.

[7] = oral 20 mg/kg, individual rats, 20 mg/kg
[8] = 50 mg/kg p.o. once daily d0-d13
[9] = 100 mg/kg p.o. once daily d0-d13
[10] = 200 mg/kg p.o. once daily d0-d13
[11] = 200 mg/kg p.o. once daily d0-d20, dn 21 days

Chain of VEGFR-2 (P35968 20-1356, species assumed): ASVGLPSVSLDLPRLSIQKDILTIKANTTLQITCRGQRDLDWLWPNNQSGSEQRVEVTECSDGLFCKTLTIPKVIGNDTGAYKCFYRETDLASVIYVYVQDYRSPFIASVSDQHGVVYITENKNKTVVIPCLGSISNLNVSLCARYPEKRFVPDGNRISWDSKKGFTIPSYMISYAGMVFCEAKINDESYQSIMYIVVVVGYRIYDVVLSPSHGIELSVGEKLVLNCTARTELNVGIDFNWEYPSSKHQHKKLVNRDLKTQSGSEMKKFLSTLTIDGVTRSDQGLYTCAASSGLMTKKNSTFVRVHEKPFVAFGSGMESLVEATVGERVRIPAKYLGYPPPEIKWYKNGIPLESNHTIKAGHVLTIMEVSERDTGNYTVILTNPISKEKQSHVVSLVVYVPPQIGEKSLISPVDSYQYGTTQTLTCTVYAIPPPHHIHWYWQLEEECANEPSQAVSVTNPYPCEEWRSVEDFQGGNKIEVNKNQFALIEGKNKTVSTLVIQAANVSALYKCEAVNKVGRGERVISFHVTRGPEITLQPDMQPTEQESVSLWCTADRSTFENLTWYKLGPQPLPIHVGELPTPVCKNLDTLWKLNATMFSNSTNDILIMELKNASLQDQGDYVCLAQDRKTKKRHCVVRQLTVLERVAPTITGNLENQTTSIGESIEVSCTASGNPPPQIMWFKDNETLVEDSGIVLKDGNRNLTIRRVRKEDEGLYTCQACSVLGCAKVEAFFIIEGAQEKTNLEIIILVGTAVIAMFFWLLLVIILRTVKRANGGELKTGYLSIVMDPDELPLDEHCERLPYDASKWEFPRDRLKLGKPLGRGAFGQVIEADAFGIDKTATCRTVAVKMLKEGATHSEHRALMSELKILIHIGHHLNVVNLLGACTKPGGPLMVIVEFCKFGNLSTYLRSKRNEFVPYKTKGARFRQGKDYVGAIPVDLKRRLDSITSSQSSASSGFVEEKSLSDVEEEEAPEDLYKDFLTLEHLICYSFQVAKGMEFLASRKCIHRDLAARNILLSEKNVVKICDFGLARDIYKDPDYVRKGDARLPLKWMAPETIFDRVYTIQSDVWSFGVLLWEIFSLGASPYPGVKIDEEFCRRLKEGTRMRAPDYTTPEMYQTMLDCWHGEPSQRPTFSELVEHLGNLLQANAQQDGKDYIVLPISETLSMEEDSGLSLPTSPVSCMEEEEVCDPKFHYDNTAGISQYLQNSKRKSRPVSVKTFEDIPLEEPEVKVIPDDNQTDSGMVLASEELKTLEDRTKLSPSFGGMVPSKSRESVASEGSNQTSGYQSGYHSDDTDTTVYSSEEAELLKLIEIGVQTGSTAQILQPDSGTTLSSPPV
Chain of c-Src (P12931 whole entry, species assumed): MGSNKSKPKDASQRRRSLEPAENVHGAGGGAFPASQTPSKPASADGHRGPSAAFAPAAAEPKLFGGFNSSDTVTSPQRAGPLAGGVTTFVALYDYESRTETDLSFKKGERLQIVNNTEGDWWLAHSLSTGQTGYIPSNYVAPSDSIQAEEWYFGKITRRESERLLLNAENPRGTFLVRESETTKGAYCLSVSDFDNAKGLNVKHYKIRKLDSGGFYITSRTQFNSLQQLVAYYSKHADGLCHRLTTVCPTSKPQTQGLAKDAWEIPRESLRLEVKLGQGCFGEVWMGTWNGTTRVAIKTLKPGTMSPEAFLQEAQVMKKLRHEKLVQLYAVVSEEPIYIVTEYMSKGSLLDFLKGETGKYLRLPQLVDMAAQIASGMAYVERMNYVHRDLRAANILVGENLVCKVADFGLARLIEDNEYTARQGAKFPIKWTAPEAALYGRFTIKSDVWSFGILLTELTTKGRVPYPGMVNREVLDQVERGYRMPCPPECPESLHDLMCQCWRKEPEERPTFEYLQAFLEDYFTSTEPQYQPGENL

N#CC1(c2ccc(NC(=O)c3cccnc3NCc3ccncc3)cc2)CCCC1 [Compound A, N-[4-(1-cyanocyclopentyl)phenyl]-2-(4-pyridylmethyl)amino-3-pyridine carboxamide]
efficacy in combination with oxaliplatin (colon cancer Ls174t; combination with oxaliplatin): improved | toxicity in combination with oxaliplatin (colon cancer Ls174t; mouse, in vivo): not increased | efficacy on colon cancer Ls174t transplanted in nude mice (colon cancer Ls174t; used alone, compared with PTK787): distinctly better than PTK787 | content after 6 Months Under Light [1]: 95.2% | content after 6 Months at 60° C. [1]: 92.2% | content after 6 Months at Room Temperature [1]: 95.7% | efficacy on non-small cell lung cancer A549 transplanted in nude mice ([2]; compared with PTK787): distinctly better than PTK787 | maximum efficacy on A549 ([2]; compared with ZD6474 at a customary dose): equivalent to ZD6474 | CL, Mean ± SD ([3]; oral 20 mg/kg, 3 rats): 1520 ± 393 mL/min/kg | Kel, Mean ± SD ([3]; oral 20 mg/kg, 3 rats): 0.426 ± 0.169 h⁻¹ | Vd, Mean ± SD ([3]; oral 20 mg/kg, 3 rats): 300 ± 69.4 L/kg | AUC0→8h [3, 7]: 295 ng·h/mL and 211 ng·h/mL | CL [3, 7]: 1920 mL/min/kg and 1120 mL/min/kg and 1540 mL/min/kg | Cmax [3, 7]: 68.9 ng/mL and 79.2 ng/mL | Kel [3, 7]: 0.325 h⁻¹ and 0.622 h⁻¹ and 0.332 h⁻¹ | MRT [3, 7]: 3.38 h and 3.32 h | T1/2 [3, 7]: 1.12 h and 2.09 h | Tmax [3, 7]: 1 h | Vd [3, 7]: 366 L/kg and 228 L/kg and 308 L/kg | AUC(0-t) ([3]; male, Sprague-Dawley, rat, plasma, po, 20 mg/kg, 3 rats, read-out: AUC0→8h, Mean ± SD): 226 ± 63 ng·h/mL | Cmax ([3]; male, Sprague-Dawley, rat, plasma, po, 20 mg/kg, 3 rats, read-out: Cmax, Mean ± SD): 69.6 ± 9.2 ng/mL | MRT ([3]; male, Sprague-Dawley, rat, plasma, po, 20 mg/kg, 3 rats, read-out: MRT, Mean ± SD): 3.3 ± 0.09 h | half-life ([3]; male, Sprague-Dawley, rat, plasma, po, 20 mg/kg, 3 rats, read-out: T1/2, Mean ± SD (converted)): 1.78 ± 0.57 h | Tmax ([3]; male, Sprague-Dawley, rat, plasma, po, 20 mg/kg, 3 rats, read-out: Tmax, Mean ± SD): 1.33 ± 0.29 h | AUC(0-t) ([3]; male, Sprague-Dawley, rat, plasma, po, 20 mg/kg, individual rats, read-out: AUC0→8h): 172 ng·h/mL | Cmax ([3]; male, Sprague-Dawley, rat, plasma, po, 20 mg/kg, individual rats, read-out: Cmax): 60.8 ng/mL | MRT ([3]; male, Sprague-Dawley, rat, plasma, po, 20 mg/kg, individual rats, read-out: MRT): 3.2 h | half-life ([3]; male, Sprague-Dawley, rat, plasma, po, 20 mg/kg, individual rats, read-out: T1/2 (converted)): 2.13 h | Tmax ([3]; male, Sprague-Dawley, rat, plasma, po, 20 mg/kg, individual rats, read-out: Tmax): 1.5 h | IC50 (VEGFR-2): ~1 nM | inhibition activity on kinases Ret, VEGFR-1, PDGFR-β, c-kit, cSRC [4]: certain selective inhibition activity | Solubility in water (Solubility): Insoluble

Cl.N#CC1(c2ccc(NC(=O)c3cccnc3NCc3ccncc3)cc2)CCCC1 [Hydrochloride of compound A]
stability (conclusion of stability experiments) [1]: most satisfying | content after 6 Months Under Light [1]: 97.6% | content after 6 Months at 60° C. [1]: 94.7% | content after 6 Months at Room Temperature [1]: 98.2% | Solubility in water (Solubility): very slightly | AUC0→8 h Mol dose (in vivo): 17653 ± 3232 ng·h/mL

N#CC1(c2ccc(NC(=O)c3cccnc3NCc3ccncc3)cc2)CCCC1.O=C(O)/C=C\C(=O)O [Maleate of compound A]
content after 6 Months Under Light [1]: 94.2% | content after 6 Months at 60° C. [1]: 93.5% | content after 6 Months at Room Temperature [1]: 96.4% | Solubility in water (Solubility): Insoluble | AUC0→8 h Mol dose (in vivo): 11697 ± 8807 ng·h/mL

Clc1ccc(Nc2nnc(Cc3ccncc3)c3ccccc23)cc1 [PTK787, reference compound]
Weight after Removing Tumor, d0 [5, 8]: 19.5 g | RTV x ± SD [5, 8]: 9.4 ± 5.9 | T/C [5, 8]: 76.4% | TV x ± SD, dn [5, 8]: 1425 ± 613 | Weight after Removing Tumor, dn [5, 8]: 17.6 g | TV x ± SD, d0 ([5]; 50 mg/kg p.o.): 171 ± 39 | Weight after Removing Tumor, d0 [5, 9]: 19.3 g | RTV x ± SD [5, 9]: 8.8 ± 3.5 | T/C [5, 9]: 71.5% | TV x ± SD, dn [5, 9]: 1538 ± 402 | Weight after Removing Tumor, dn [5, 9]: 17.3 g | TV x ± SD, d0 ([5]; 100 mg/kg p.o.): 175 ± 43 | Weight after Removing Tumor, d0 [5, 10]: 18.8 g | RTV x ± SD [5, 10]: 7.4 ± 2.0 | TV x ± SD, dn [5, 10]: 1076 ± 198 | Weight after Removing Tumor, dn [5, 10]: 17.1 g | TV x ± SD, d0 ([5]; 200 mg/kg p.o.): 150 ± 25 | efficacy at 400 mg/kg ([5]; 400 mg/kg): did not increase significantly | ED50 ([5]; Mus musculus, LS174T, read-out: ED50 on colon cancer Ls174t): 459 mg/kg | tolerance at 400 mg/kg ([5]; mouse, in vivo): could be tolerated by mice | Weight after Removing Tumor, d0 (human colon cancer HT-29; 200 mg/kg p.o. once daily d0-d20, d0 baseline): 15.9 g | RTV x ± SD (human colon cancer HT-29; [11]): 4.9 ± 1.36 | TV x ± SD, dn (human colon cancer HT-29; [11]): 1185 ± 143 | Weight after Removing Tumor, dn (human colon cancer HT-29; 200 mg/kg p.o. once daily d0-d20, dn 21 days after first administration): 13.9 g | TV x ± SD, d0 (human colon cancer HT-29; 200 mg/kg p.o., d0 baseline): 252 ± 43 | tolerance (human colon cancer HT-29; mouse, in vivo, po): well tolerated | best T/C % [6]: 40% | inhibition on c-Src (c-Src): no inhibition

N#CC1(c2ccc(NC(=O)c3cccnc3NCc3ccncc3)cc2)CCCC1.O=P(O)(O)O [Phosphate of compound A]
content after 6 Months Under Light [1]: 97.1% | content after 6 Months at 60° C. [1]: 94.2% | content after 6 Months at Room Temperature [1]: 97.3% | Solubility in water (Solubility): Insoluble | AUC0→8 h Mol dose (in vivo): 9074 ± 6292 ng·h/mL

N#CC1(c2ccc(NC(=O)c3cccnc3NCc3ccncc3)cc2)CCCC1.O=C(O)CCC(=O)O [Succinate of compound A]
content after 6 Months Under Light [1]: 94.2% | content after 6 Months at 60° C. [1]: 93.8% | content after 6 Months at Room Temperature [1]: 96.2%
